Source: PMC6691788, “Design and synthesis of phthalazine-based compounds as potent anticancer agents with potential antiangiogenic activity via VEGFR-2 inhibition” (Journal of Enzyme Inhibition and Medicinal Chemistry, 2019)

Legend:
[1] = test system: UACC-257; assay: NCI 60 cell panel SRB screen; type: cell-based; conditions: Homo sapiens, UACC-257, read-out: percent cell growth promotion
[2] = test system: SK-MEL-5; assay: NCI 60 cell panel SRB screen; type: cell-based; conditions: Homo sapiens, SK-MEL-5, read-out: percent cell growth promotion
[3] = test system: LOX IMVI; assay: NCI 60 cell panel SRB screen; type: cell-based; conditions: Homo sapiens, read-out: percent cell growth promotion
[4] = test system: HOP-92; assay: NCI 60 cell panel SRB screen; type: cell-based; conditions: Homo sapiens; HOP-92, single dose 10 μM; read-out: percent cell growth promotion
[5] = test system: OVCAR-4; assay: NCI 60 cell panel SRB screen; type: cell-based; conditions: Homo sapiens; OVCAR-4, single dose 10 μM; read-out: percent cell growth promotion
[6] = biological target: T1, VEGFR-2 tyrosine kinase (Homo sapiens, UniProt P35968); assay: In vitro VEGFR-2 tyrosine kinase assay (BPS Bioscience); type: biochemical; conditions: read-out: VEGFR-2 % inhibition; 10 μM concentration
T1 construct: purchased BPS Bioscience 40301
Method: The VEGFR tyrosine kinase assays were performed at BPS Bioscience (www.bpsbioscience.com). All the synthesised compounds representing the six series were evaluated for their ability to inhibit VEGFR-2 tyrosine kinase at single dose of 10 µM.
The VEGFR tyrosine kinase activity at single dose concentration of 10 μM was carried out by BPS Bioscience (www.bpsbioscience.com). VEGFR (BPS#40301) served as the enzyme source and Poly (Glu, Tyr) sodium salt, (4:1, Glu:Tyr) (Sigma#P7244) served as the standardized substrate & Kinase-Glo Plus Luminescence kinase assay kit (Promega#V3772). The IC50 determination was carried out where quality control testing is routinely performed on each of the targets to insure compliance to acceptable standards. ^33P-ATP was purchased from Perkin Elmer and ADP-Glo^TM was purchased from Promega. All other materials were of standard laboratory grade.
The VEGFR tyrosine kinase activity was performed using Kinase-Glo Plus luminescence kinase assay kit (Promega). It measures kinase activity by quantitating the amount of ATP remaining in solution following a kinase reaction. The luminescent signal from the assay is correlated with the amount of ATP present and is inversely correlated with the amount of kinase activity. The compounds were diluted to 100 μM in 10% DMSO and […] of the dilution was added to a […] reaction so that the final concentration of DMSO is 1% in all of reactions. All of the enzymatic reactions were conducted at 30 °C for 40 min. The 50 μl reaction mixture contains […], pH 7.4, […], 0.1 mg/ml BSA, 0.2 mg/ml Poly (Glu, Tyr) substrate, 10 μM ATP and VEGFR. After the enzymatic reaction, […] of Kinase-GloPlus Luminescence kinase assay solution (Promega) was added to each reaction and incubate the plate for 5 min at room temperature. Luminescence signal was measured using a BioTek Synergy 2 microplate reader. The protein kinase assays used to determine IC50 value were performed using ADP-GloTM assay kit from Promega which measures the generation of ADP by the protein kinase. Generation of ADP by the protein kinase reaction leads to an increase in luminescence signal in the presence of ADP-GloTM assay kit. The assay was started by incubating the reaction mixture in a 96-well plate at 30 °C for 30 min. After the 30 min incubation period, the assay was terminated by the addition of […] of ADP-GloTM Reagent (Promega). The 96 well plate was shaken and then incubated for 40 min at ambient temperature. […] of Kinase detection reagent was added, the 96-well reaction plate was then read using the ADP-Glo Luminescences Protocol on a GloMax plate reader (Promega: Catalog #E7031). Blank control was set up that included all the assay components except the addition of appropriate substrate (replace with equal volume of kinase assay buffer). The corrected activity for each protein kinase target was determined by removing the blank control value.
VEGFR activity assays were performed in duplicate at each concentration. The luminescence data were analyzed using the computer software, Graphpad Prism. The difference between luminescence intensities in the absence of VEGFR (Lut) and in the presence of VEGFR (Luc) was defined as 100% activity (Lut - Luc). […] IC50 determination for inhibitor against VEGFR was estimated by generating a graph of log inhibitor vs normalized response with variable using the Prism software.

[7] = test system: OVCAR-3; assay: NCI 60 cell panel SRB screen; type: cell-based; conditions: Homo sapiens; OVCAR-3, single dose 10 μM; read-out: percent cell growth promotion
[8] = test system: CCRF-CEM; assay: NCI 60 cell panel SRB screen; type: cell-based, human; conditions: Homo sapiens, single dose 10 μM, read-out: percent cell growth promotion
[9] = test system: SK-OV-3; assay: NCI 60 cell panel SRB screen; type: cell-based; conditions: Homo sapiens; SK-OV-3, single dose 10 μM; read-out: percent cell growth promotion
[10] = test system: NCI-H460; assay: NCI 60 cell panel SRB screen; type: cell-based; conditions: Homo sapiens; NCI-H460, single dose 10 μM; read-out: percent cell growth promotion
[11] = test system: SN12C; assay: NCI 60 cell panel SRB screen; type: cell-based; conditions: Homo sapiens, single dose 10 μM, read-out: percent cell growth promotion
[12] = test system: EKVX; assay: NCI 60 cell panel SRB screen; type: cell-based, human; conditions: single dose 10 μM
[13] = test system: SK-MEL-2; assay: NCI 60 cell panel SRB screen; type: cell-based; conditions: SK-MEL-2, single dose 10 μM
[14] = test system: SF-539; assay: NCI 60 cell panel SRB screen; type: cell-based, human; conditions: SF-539, single dose 10 μM

T1 sequence (P35968 20-1356): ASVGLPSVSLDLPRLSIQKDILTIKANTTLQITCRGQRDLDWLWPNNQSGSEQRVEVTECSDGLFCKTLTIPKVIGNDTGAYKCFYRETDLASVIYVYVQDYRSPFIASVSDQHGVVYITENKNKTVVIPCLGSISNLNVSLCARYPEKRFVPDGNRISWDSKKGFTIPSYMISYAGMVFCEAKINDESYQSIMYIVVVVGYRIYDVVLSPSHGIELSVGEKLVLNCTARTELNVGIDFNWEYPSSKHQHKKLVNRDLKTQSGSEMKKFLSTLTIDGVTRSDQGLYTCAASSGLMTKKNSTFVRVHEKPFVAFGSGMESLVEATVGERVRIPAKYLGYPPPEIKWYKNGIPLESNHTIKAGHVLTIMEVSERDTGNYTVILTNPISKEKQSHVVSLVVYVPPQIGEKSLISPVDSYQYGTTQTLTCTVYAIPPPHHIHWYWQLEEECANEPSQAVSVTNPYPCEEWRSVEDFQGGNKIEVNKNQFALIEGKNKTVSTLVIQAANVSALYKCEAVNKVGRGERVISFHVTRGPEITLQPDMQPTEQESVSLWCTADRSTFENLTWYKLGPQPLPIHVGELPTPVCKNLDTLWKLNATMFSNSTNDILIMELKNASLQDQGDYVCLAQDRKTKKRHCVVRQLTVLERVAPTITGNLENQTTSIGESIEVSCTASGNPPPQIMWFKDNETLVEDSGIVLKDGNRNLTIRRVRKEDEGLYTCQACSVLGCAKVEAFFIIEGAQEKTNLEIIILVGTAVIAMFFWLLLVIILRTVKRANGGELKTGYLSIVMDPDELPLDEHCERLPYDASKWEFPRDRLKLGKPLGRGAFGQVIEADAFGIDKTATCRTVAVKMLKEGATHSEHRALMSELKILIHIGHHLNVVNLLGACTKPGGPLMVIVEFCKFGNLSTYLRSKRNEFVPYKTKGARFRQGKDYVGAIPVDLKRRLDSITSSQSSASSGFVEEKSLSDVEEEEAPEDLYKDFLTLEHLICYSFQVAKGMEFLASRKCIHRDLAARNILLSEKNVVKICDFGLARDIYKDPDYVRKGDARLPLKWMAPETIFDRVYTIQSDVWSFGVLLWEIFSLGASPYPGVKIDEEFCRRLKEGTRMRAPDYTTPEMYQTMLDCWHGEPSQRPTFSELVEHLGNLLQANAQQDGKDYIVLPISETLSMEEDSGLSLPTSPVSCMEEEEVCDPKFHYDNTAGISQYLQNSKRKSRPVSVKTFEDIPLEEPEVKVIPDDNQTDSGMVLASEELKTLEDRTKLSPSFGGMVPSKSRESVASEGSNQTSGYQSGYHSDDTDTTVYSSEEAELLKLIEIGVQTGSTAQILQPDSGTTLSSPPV

SMILES | activity at 10 µM [1] [%] | activity at 10 µM [2] [%] | activity at 10 µM [3] [%] | activity at 10 µM [4] [%] | activity at 10 µM [5] [%] | inhibition at 10 µM [6] [%] | activity at 10 µM [7] [%] | activity at 10 µM [8] [%] | activity at 10 µM [9] [%] | activity at 10 µM [10] [%] | activity at 10 µM [11] [%] | percent cell growth promotion [12] [%] | percent cell growth promotion [13] [%] | percent cell growth promotion [14] [%]
O=C(Nc1ccc(Nc2nncc3ccccc23)cc1)c1ccc(Cl)cc1 [Compound 5b, 4-Chloro-N-(4-(phthalazin-1-ylamino)phenyl)benzamide] | 93 | 99.8 | 99.9 | 97.5 | 106 | 8 | 101 | 103 | 87.3 | 101 | 100 |  |  | 
Cc1nnc(Nc2ccc(NC(=O)c3ccc(Cl)cc3)cc2)c2ccccc12 [Compound 5d, 4-Chloro-N-(4–(4-methylphthalazin-1-ylamino)phenyl)benzamide] | 97.4 | 78.7 | 91.9 | 55.4 | 105 | 15 | 93.3 | 91 | 83.5 | 96.4 | 91 |  |  | 
Cc1nnc(Oc2ccc(NC(=O)Nc3ccc(Cl)cc3)cc2)c2ccccc12 [Compound 7e, 1–(4-Chlorophenyl)-3–(4-(4-methylphthalazin-1-yloxy)phenyl)urea] | 83.9 | 70.2 | 78.1 | 93.5 | 70.8 | 14 | 69.8 | 40.2 | 69.5 | 78.2 | 79.1 |  |  | 
CCOC(=O)N1CCN(c2nncc3ccccc23)CC1 [Compound 8a, Ethyl 4-(phthalazin-1-yl)piperazine-1-carboxylate] | 95.8 | 103 | 98.7 | 104 | 107 | 13 | 105 | 96.9 | 105 | 105 | 110 |  |  | 
c1ccc(N2CCN(c3nncc4ccccc34)CC2)nc1 [Compound 8d, 1–(4-(Pyridin-2-yl)piperazin-1-yl)phthalazine] | 99 | 97.5 | 97.5 | 102 | 109 | 5 | 99.9 | 102 | 104 | 108 | 102 |  |  | 
CCOC(=O)N1CCN(c2nnc(C)c3ccccc23)CC1 [Compound 8f, Ethyl 4–(4-methylphthalazin-1-yl)piperazine-1-carboxylate] | 92.4 | 97.5 | 106 | 112 | 97.8 | 14 | 112 | 103 | 101 | 104 | 101 |  |  | 
Cc1nnc(N2CCN(c3ccccc3)CC2)c2ccccc12 [Compound 8g, 1-Methyl-4–(4-phenylpiperazin-1-yl)phthalazine] | 93 | 98.1 | 103 | 95.9 | 104 | 13 | 108 | 103 | 96.5 | 105 | 100 |  |  | 
Cc1nnc(N2CCN(c3ccccc3F)CC2)c2ccccc12 [Compound 8h, 1–(4-(2-Fluorophenyl)piperazin-1-yl)-4-methylphthalazine] | 95.3 | 92.9 | 106 | 112 | 91.8 | 9 | 110 | 99.7 | 105 | 101 | 100 |  |  | 
Cc1nnc(N2CCN(c3ccccn3)CC2)c2ccccc12 [Compound 8i, 1-Methyl-4–(4-(pyridin-2-yl)piperazin-1-yl)phthalazine] | 98.5 | 97 | 102 | 119 | 100 | 6 | 114 | 102 | 108 | 103 | 104 |  |  | 
O=C(Nc1ccc(Cl)cc1)Nc1ccc(Oc2nnc(Cl)c3ccccc23)cc1 [Compound 13b, 1–(4-Chlorophenyl)-3–(4-(4-chlorophthalazin-1-yloxy)phenyl)urea] | 89.9 | 95.5 | 86.2 | 104 | 72.1 | 38 | 85.4 | 66 | 88.6 | 98.1 | 91.4 | 62.48 | 93.58 | 84.86
